This note sets out measurements from US9102932B2, “Orthogonal translation components for the in vivo incorporation of unnatural amino acids” (The Scripps Research Institute, priority 2004, dated 2015).

Some results are limits rather than exact numbers.

Data set [1] relates to Z domain protein gene with amber codon at seventh position. Description: Expression of amber mutant Z domain protein with unnatural amino acid, SDS-PAGE and MALDI-TOF MS. Type of data set: cell-based, E. coli. How it is done: To confirm that the observed phenotype is caused by the site-specific incorporation of p-ethylthiocarbonyl-L-phenylalanine by the mutRNACUA-mutTyrRS pair, an amber codon was substituted for the seventh position (Tyr) in the gene encoding the Z domain protein (Nilsson et al., Protein Eng. 1987, 1, 107-113) fused to a C-terminal His6 tag. Protein was expressed in the presence or absence of 1 mM p-ethylthiocarbonyl-L-phenylalanine and purified by Ni-NTA chromatography. […]
Additional evidence for the site specific incorporation of p-ethylthiocarbonyl-L-phenylalanine was obtained by matrix-assisted laser desorption/ionization time-of-flight mass spectrometry (MALDI-TOF MS). In addition to the observation of an experimental average mass of 8006 Da for the intact Tyr p-ethylthiocarbonyl-L-phenylalanine protein (MTheoretical=8002 Da, see, FIG. 16), a minor peak corresponding to the mutant protein without the first methionine moiety in acetylated form (MExperimental=7913 Da vs. MTheoretical=7913 Da) and a major peak corresponding to the mutant protein without the first methionine moiety (MExperimental=7871 Da vs. MTheoretical=7871 Da) were also detected (FIG. 16). Another major peak of 7828 Da was present that corresponds to Z domain protein containing a free carboxylic acid group instead of a thioester moiety at position 7, which has a calculated mass of 7827 Da in its protonated form. […]

Data set [2] is described as follows: Photodecaging of O-(2-nitrobenzyl)-L-tyrosine by irradiation at 365 nm, LC/MS. The class given is physicochemical. Here is the method:
FIG. 9 provides concentration curve assays illustrating the experimentally observed photodecaging (photoactivation) of the caged tyrosine molecule O-(2-nitrobenzyl)-L-tyrosine. Photodecaging of O-(2-nitrobenzyl)-L-tyrosine was illustrated by irradiation of a 0.2 mM amino acid solution in water using a handheld UV lamp (365 nm at 10 mm distance). Aliquots were taken at specific time points and analyzed by LC/MS. The concentrations of O-(2-nitrobenzyl)-L-tyrosine (squares) and the corresponding decaged species (circles) are shown.
Irradiation of O-(2-nitrobenzyl)-L-tyrosine (synthesized from L-tyrosine as described in Miller et al., Neuron 1998, 20, 619) at 365 nm induces cleavage of the benzylic CO-bond and rapid formation of the decaged amino acid (t1/2=4 min, see supporting information), as illustrated schematically in FIG. 8.
Photodecaging of O-(2-nitrobenzyl)-L-tyrosine can be experimentally observed, as illustrated in the experimental results shown in FIG. 9. As shown in this figure, the photodecaging of O-(2-nitrobenzyl)-L-tyrosine was studied by irradiation of a 0.2 mM solution in water (one well of a six-well plate) using a handheld UV lamp (365 nm at 10 mm distance). Aliquots were taken at specific time points and analyzed by LC/MS. 50% decaging was achieved after approximately four minutes.

In data set [3] the test system is human superoxide dismutase bearing amber codon at position 33 (hSOD-33TAG-His6). In words: Expression of hSOD-33TAG-His6 in yeast with mutant E. coli leucyl-tRNA synthetases, SDS-PAGE. The class given is cell-based. The conditions noted are these: yeast host cells. The source says: To increase hydrolytic activity towards leucine, residues T252 and V338 in the E. coli synthetase editing domain were exchanged to alanine by Quikchange mutagenesis in order to enlarge the binding pocket (see, FIG. 6A). […] High selectivity of this mutant was further confirmed by MALDI TOF MS of hSOD-33TAG-His6.
To evolve a more efficient oNBS translation system, the selected clone 3H11 synthetase was diversified by error prone PCR, again using three different mutagenicities, to introduce one, two or five mutations per gene, yielding an overall diversity of 1×10^7 clones. The positions in the leucyl-tRNA-synthetase enzyme that were targeted for randomization were M40, L41, Y499, Y527 and H537. The protocols used herein follow the general methodologies described in the art, e.g., Wu et al., Journal of the American Chemical Society 126:14306-14307 (2004); and International Application No. PCT/US 2005/034002, filed Sep. 21, 2005, by Deiters et al.
Sequencing of the G2-6 clone identified five additional mutations throughout the enzyme in comparison to the initial 3H11 synthetase starting material (positions S31G, T247A, T248S, M617I and V673A). Additional mutations (caused during library construction) found in all clones throughout the library were also observed as follows: H67R, N196T, R262A and S497C. […]

As for `CC(=O)CC(=O)c1ccc(C[C@H](N)C(=O)O)cc1` [p-(3-oxobutanoyl)-L-phenylalanine], the “Fidelity for the incorporation” value in data set [1] (MALDI-TOF MS, signal-to-noise ratio >400, evolved mutRNACUA^Tyr-mutTyrRS pair) is listed as above 99%. Besides, the “Incorporation efficiency compared to tyrosine” value in data set [1] (Z domain protein, seventh position, 1 mM unnatural amino acid, SDS-PAGE) is given as “around 30%”.
The molecule `N[C@@H](Cc1ccc(OCc2ccccc2[N+](=O)[O-])cc1)C(=O)O` [O-(2-nitrobenzyl)-L-tyrosine] yielded a Decaging in data set [2] (after approximately four minutes, 0.2 mM solution in water, handheld UV lamp 365 nm at 10 mm distance) of 50%. For the same molecule, in data set [2] (solution in water under UV irradiation (365 nm), irradiation at 365 nm, read-out: t1/2 of formation of the decaged amino acid), the half-life at 0.2 mM is 4 min.

B1: clone 3H11 (protein)
chain: MEEQYRPEEIESKVQLHWDEKRTFEVTEDESKEKYYCLSWSPYPSGRLHMGHVRNYTIGDVIARYQRMLGKNVLQPIGWDAFGLPAEGAAVKNNTAPAPWTYDNIAYMKNQLKMLGFGYDWSRELATCTPEYYRWEQKFFTELYKKGLVYKKTSAVNWCPNDQTVLANEQVIDGCCWRCDTKVERKEIPQWFIKITAYADELLNDLDKLDHWPDTVKTMQRNWIGRSEGVEITFNVNDYDNTLTVYTTRPDTFMGCTYLAVAAGHPLAQKAAENNPELAAFIDECRNTKVAEAEMATMEKKGVDTGFKAVHPLTGEEIPVWAANFVLMEYGTGAVMAVPGHDQRDYEFASKYGLNIKPVILAADGSEPDLSQQALTEKGVLFNSGEFNGLDHEAAFNAIADKLTAMGVGERKVNYRLRDWGVSRQRYWGAPIPMVTLEDGTVMPTPDDQLPVILPEDVVMDGITSPIKADPEWAKTTVNGMPALRETDTFDTFMESCWIYARYTCPQYKEGMLDSEAANYWLPVDIAIGGIEHAIMGLLYFRFFHKLMRDAGMVNSDEPAKQLLCQGMVLADAFYYVGENGERNWVSPVDAIVERDEKGRIVKAKDAAGHELVYTGMSKMSKSKNNGIDPQVMVERYGADTVRLFMMFASPADMTLEWQESGVEGANRFLKRVWKLVYEHTAKGDVAALNVDALTENQKALRRDVHKTIAKVTDDIGRRQTFNTAIAAIMELMNKLAKAPTDGEQDRALMQEALLAVVRMLNPFTPHICFTLWQELKGEGDIDNAPWPVADEKAMVEDSTLVVVQVNGKVRAKITVPVDATEEQVRERAGQEHLVAKYLDGVTVRKVIYVPGKLLNLVVG
modifications: o-nitrobenzylcysteine aminoacyl-tRNA synthetase
For B1, the “oNBS incorporation efficiency compared to an oNBC amino acid (in words)” value in data set [3] was “twofold reduced efficiency”.
